Tests used:
[1] = test system: AMD patients; assay: Fundus and OCT imaging: drusen resolution, retinal thickness and volume; format: in vivo, human; conditions: for Average retinal thickness / Average total volume (retina) / Retinal thickness, maximum / Retinal thickness, minimum: Patient 2, atorvastatin 80 mg/day; for OCT retinal imaging finding: Patient 5, atorvastatin 80 then 20 mg/day, April 2018 vs January 2014
Description: The patient was asked to report any perceived changes in visual function during the course of the treatment. […] The self-reported improvement was confirmed at months 15 and 22 of treatment. […] The resolution of the drusen was confirmed by fundus photography and optical coherence tomography (OCT) imaging.
(§1) Table 2 provides detailed information regarding patients 1 to 7, including the baseline diagnosis (diagnosis made when starting statin therapy), ending diagnosis (the diagnosis made on the date of the last referenced evaluation), the results of evaluations performed on each patient, and whether the patient responded to statin therapy. The dark adaptation data in this Example is the rod intercept time (or RI time) reported in minutes. In this Example, the dark adaptation data was collected using the AdaptDx® Dark Adaptometer (MacuLogix, Middletown, PA) running its standard Extended Test protocol. […] Data is automatically analyzed by the AdaptDx Dark Adaptometer to provide an RI time based on recovery to a criterion sensitivity level of 5×10^−3 scotopic cd/m^2. […] The visual acuity data was collected using a standard Snellen or ETDRS eye chart with the results presented using the standard 20/20 vision scale. Drusen resolution was determined by evaluation of fundus and OCT imaging by qualified clinicians experienced in AMD evaluation. Fundus and OCT imaging data was collected using the Heidelberg Engineering Spectralis® SD-OCT (Heidelberg, Germany) or the Karl Zeiss Meditec Cirrus® HD-OCT (Jena, Germany), in both cases running standard protocols with automated data analysis performed by the instruments.
The baseline diagnosis and ending diagnosis are the result of clinical assessment by qualified clinicians experienced in evaluation of AMD patients. The clinical assessment was carried out utilizing standard ophthalmic testing, such as, but not limited to, slit-lamp biomicroscopy (including looking for evidence of drusen and pigmentary changes), fundus and OCT imaging (including looking for evidence of drusen and pigmentary changes and calculation of retinal volume and retinal thickness), and testing with a Snellen or ETDRS eye chart (including looking for visual acuity changes that might indicate a change in disease status). Dark adaptation results were not used in the clinical assessment of the baseline or ending diagnosis.

[2] = test system: AMD patients; assay: Dark adaptation testing, rod intercept (RI) time, AdaptDx Dark Adaptometer Extended Test protocol; format: in vivo, human; conditions: for Improvement in RI time: Patient 2, atorvastatin 80 mg/day, July 2018 vs January 2015
Description: Dark adaptation is preferably measured using devices known in the art, for example as described in U.S. Pat. No. 7,494,222. […] Briefly, the methods of the prior art as described therein, while sitting in complete or near-complete darkness the subject is first exposed to a bright photobleaching light to photobleach one or more of the visual pigments. This is followed by exposure to a series of dim stimulus lights to track visual sensitivity recovery from the photobleach. The intensity of the stimulus lights is gradually […] (generally in a staircase fashion), and the subject indicates whether each stimulus light presentation is detectable (e.g., by pushing a response button) or not detectable (e.g., by failing to push the response button). The just-detectible stimulus light intensity and the time at which it is detected are periodically recorded to generate a dark adaptation threshold curve. Finally, the speed of dark adaption is characterized by a parameter extracted from the threshold curve such as the rod intercept time or the rod-cone break time.
as §1

[3] = Patient #6, atorvastatin 80 mg/day, OD, month 9 (August 2018)

## CC(C)c1c(C(=O)Nc2ccccc2)c(-c2ccccc2)c(-c2ccc(F)cc2)n1CC[C@@H](O)C[C@@H](O)CC(=O)O [atorvastatin]
[1]; Example 1: adult female, intermediate AMD, oral atorvastatin increasing to 80 mg per day over six months
  Drusen resolution: eventual resolution of the drusen
[1]; Example 2: adult person, intermediate AMD, oral atorvastatin 10 to 80 mg per day, month 15
  Drusen resolution (ophthalmic examination, fundus photography, OCT): substantially complete resolution of the drusen
[1]; left eye, August 2016 OCT
  Average retinal thickness: 193 µm
  Average total volume (retina): 8.2 mm^3
  Retinal thickness, maximum: 291 µm
  Retinal thickness, minimum: 191 µm
[1]; left eye, February 2016 OCT
  Average retinal thickness: 364 µm
  Average total volume (retina): 8.45 mm^3
  Retinal thickness, maximum: 457 µm
  Retinal thickness, minimum: 217 µm
[1]; right eye, August 2015 OCT
  Average retinal thickness: 179 µm
  Average total volume (retina): 8.49 mm^3
  Retinal thickness, maximum: 461 µm
  Retinal thickness, minimum: 176 µm
[1]; right eye, December 2015 OCT
  Average retinal thickness: 199 µm
  Average total volume (retina): 8.23 mm^3
  Retinal thickness, maximum: 332 µm
  Retinal thickness, minimum: 170 µm
[1]; pravastatin 20 mg/day from April 2018, left eye
  OCT retinal imaging finding: development of a PED
[1]; pravastatin 20 mg/day from April 2018, right eye
  OCT retinal imaging finding: increased drusen accumulation with possible increase in drusen size
[1]; Patient #1, atorvastatin 20 to 80 mg/day, OU, month 59 (June 2018)
  Drusen resolution: No indication of drusen resolution OU
[1]; Patient #2, atorvastatin 80 mg/day, OD, month 35 (December 2015 vs August 2015)
  Decrease in retina volume: volume of 0.26 mm^3
[1]; Patient #2, atorvastatin 80 mg/day, OS, month 43 (August 2016 vs February 2016)
  Decrease in retina volume: volume of 0.25 mm^3
[1]; Patient #3, atorvastatin 80 mg/day, OU, month 19 (May 2018)
  SDD resolution: No indication of SDD resolution OU
[1]; Patient #4, atorvastatin 80 mg/day, OU, month 3 (August 2018)
  Drusen resolution: No indication of drusen resolution OU
[1]; Patient #5, atorvastatin 80 mg/day (suspended January 2015-February 2016), then 20 mg/day, pravastatin 20 mg/day from April 2018, OU, month 51 (April 2018)
  Drusen resolution: No indication of drusen resolution OU
[1]; [3]
  Decrease in retina volume: volume of 0.09 mm^3
[1]; Patient #6, atorvastatin 80 mg/day, OS, month 9 (August 2018)
  Decrease in retina volume: volume of 0.1 mm^3
[1]; Patient #6, atorvastatin 80 mg/day, OU, month 9 (August 2018)
  Drusen resolution: Initial signs of drusen resolution OU
[1]; Patient #7, atorvastatin 10 to 20 mg/day, OU, month 27 (July 2018)
  Drusen resolution: No indication of drusen resolution OU
[2]; OD
  Improvement in RI time: 1.67 min
[2]; OS
  Improvement in RI time: 2.60 min
[2]; Patient 5, atorvastatin 80 then 20 mg/day, pravastatin 20 mg/day from April 2018, left eye, June 2018 vs October 2015
  Change in RI time: essentially unchanged
[2]; Patient 5, atorvastatin 80 then 20 mg/day, pravastatin 20 mg/day from April 2018, right eye, June 2018 vs October 2015
  Increase in RI time: 7.51 min
[2]; Patient #1, atorvastatin 20 to 80 mg/day, OD, month 24 (July 2015)
  RI (rod intercept time): RI > 20 minutes
[2]; Patient #1, atorvastatin 20 to 80 mg/day, OD, month 60 (July 2018)
  RI (rod intercept time): RI > 20 minutes
[2]; Patient #1, atorvastatin 20 to 80 mg/day, OS, month 24 (July 2015)
  RI (rod intercept time): RI = 17.13 minutes
[2]; Patient #1, atorvastatin 20 to 80 mg/day, OS, month 60 (July 2018)
  RI (rod intercept time): RI > 20 minutes
[2]; Patient #2, atorvastatin 80 mg/day, OD, month 24 (January 2015)
  RI (rod intercept time): RI = 18.72 minutes
[2]; Patient #2, atorvastatin 80 mg/day, OD, month 66 (July 2018)
  RI (rod intercept time): RI = 17.05 minutes
[2]; Patient #2, atorvastatin 80 mg/day, OS, month 24 (January 2015)
  RI (rod intercept time): RI = 9.88 minutes
[2]; Patient #2, atorvastatin 80 mg/day, OS, month 66 (July 2018)
  RI (rod intercept time): RI = 7.28 minutes
[2]; Patient #3, atorvastatin 80 mg/day, OD, month 8 (June 2017)
  RI (rod intercept time): RI > 20 minutes
[2]; Patient #3, atorvastatin 80 mg/day, OD, month 20 (June 2018)
  RI (rod intercept time): RI > 20 minutes
[2]; Patient #3, atorvastatin 80 mg/day, OS, month 8 (June 2017)
  RI (rod intercept time): RI > 20 minutes
[2]; Patient #3, atorvastatin 80 mg/day, OS, month 20 (June 2018)
  RI (rod intercept time): RI > 20 minutes
[2]; Patient #4, atorvastatin 80 mg/day, OD, month 0 (May 2018), baseline
  RI (rod intercept time): RI > 20 minutes
[2]; Patient #4, atorvastatin 80 mg/day, OD, month 4 (September 2018)
  RI (rod intercept time): RI > 20 minutes
[2]; Patient #4, atorvastatin 80 mg/day, OS, month 0 (May 2018), baseline
  RI (rod intercept time): RI > 20 minutes
[2]; Patient #4, atorvastatin 80 mg/day, OS, month 4 (September 2018)
  RI (rod intercept time): RI > 20 minutes
[2]; Patient #5, atorvastatin 80 mg/day (suspended January 2015-February 2016), then 20 mg/day, pravastatin 20 mg/day from April 2018, OD, month 52 (June 2018)
  RI (rod intercept time): RI = 17.19 minutes
[2]; Patient #5, atorvastatin 80 mg/day (suspended January 2015-February 2016), then 20 mg/day, pravastatin 20 mg/day from April 2018, OS, month 52 (June 2018)
  RI (rod intercept time): RI = 10.81 minutes
[2]; Patient #5, atorvastatin 80 mg/day January 2014 to January 2015, therapy suspended until February 2016, OD, month 21 (October 2015)
  RI (rod intercept time): RI = 9.68 minutes
[2]; Patient #5, atorvastatin 80 mg/day January 2014 to January 2015, therapy suspended until February 2016, OS, month 21 (October 2015)
  RI (rod intercept time): RI = 11.04 minutes
[2]; Patient #6, atorvastatin 80 mg/day from November 2017, OD, month −3 (August 2017), before initiation
  RI (rod intercept time): RI = 5.75 minutes
[2]; [3]
  RI (rod intercept time): RI = 2.55 minutes
[2]; Patient #7, atorvastatin 10 to 20 mg/day, OD, month 0 (April 2016), baseline
  RI (rod intercept time): RI > 20 minutes
[2]; Patient #7, atorvastatin 10 to 20 mg/day, OD, month 27 (July 2018)
  RI (rod intercept time): RI > 20 minutes
[2]; Patient #7, atorvastatin 10 to 20 mg/day, OS, month 0 (April 2016), baseline
  RI (rod intercept time): RI > 20 minutes
[2]; Patient #7, atorvastatin 10 to 20 mg/day, OS, month 27 (July 2018)
  RI (rod intercept time): RI > 20 minutes

From patent US12640239B2, “Functional biomarkers for statin therapy in age-related macular degeneration (AMD)” (APELIOTUS TECHNOLOGIES, INC., priority 2017, dated 2026)
